Laboratory results reported in patent US8507445B2, “Compositions and methods of use of targeting peptides for diagnosis and therapy of human cancer” (Board of Regents, The University of Texas System, priority 2002, dated 2013).
Bridge positions count the residues as written; N and C are the ends. Square brackets hold non-standard residues; d marks the D form. Ends that are not written are not given here. Peptide text beside a SMILES is read from it.

Assays:
[1] = Anti-obesity therapy, regular diet-fed old mice; design: species or system C57BL/6 mice; settings: mouse, in vivo
[2] = tested on: adipose tissue; experiment: Histopathological analysis of tissues from treated mice; settings: mouse, in vivo
Procedure: (§1) Staining of formalin-fixed, paraffin-embedded mouse tissue sections was performed (Pasqualini & Rouslahti, 1996; Pasqualini et al., 2000). For phage-peptide immunolocalization, 10^10 TU of […] (SEQ ID NO:81)-phage or a control insertless phage was injected intravenously. Phage immunohistochemistry was performed using a rabbit anti-fd phage antibody (Sigma Chemicals, St. Louis, Mo.) used at 1:1,000 dilution and a secondary horseradish peroxidase (HRP)-conjugated antibody. Apoptosis was detected using standard TUNEL immunohistochemistry and an HRP-conjugated antibody. For in vivo peptide homing validation, stocks of 5-carboxyfluorescein (FITC)-conjugated […] (SEQ ID NO:81) or CARAC (SEQ ID NO:71) were chemically synthesized, cyclized using the terminal cysteines and HPLC-purified to >90% purity by Anaspec (San Jose, Calif.). Lyophilized peptides were dissolved in DMSO to a concentration of 20 mM. Ten μl of 1 mM peptide-FITC solution in PBS was injected 5 min prior to tissue extraction. For blood vessel localization, 10 μl of 2 mg/ml of rhodamine-conjugated lectin-I (RL-1102, Vector Laboratories, Burlingame, Calif.) was co-injected. All immunohistochemistry and FITC immunofluorescence images were captured using an Olympus IX70 microscope and digital camera setup (Melville, N.Y.).

[3] = Injection into genetically obese mice; type: in vivo; settings: not normal obese mice
[4] = tested on: MDA-MB-435 cells; experiment: Targeted phage vector transduction and peptide inhibition in cell culture; type: cell-based, human; settings: cells pre-incubated with synthetic peptide
Procedure: (§2) Targeted phage vector transduction and specific inhibition by using synthetic peptides. MDA-MB-435 breast cancer and KS1767 Karposi's sarcoma cells were cultured on 8-well chamber glass slides. The culture media was replaced by 200 μl of MEM with 2% FCS and 5×10^10 TU of RGD-4C-β-gal, HWGF-β-gal, or fd-β-gal phage vectors (at 10^5 transducing units/cell in each case). Both cell lines express high levels of the integrin and MMP receptors for those targeting peptides. Phage were incubated with cells for 3 hr at 37° C., followed by a medium change to MEM plus 10% FCS. The cells were incubated for 72 hr at 37° C. to allow for β-gal gene expression. […]
(§3) In the cell culture transduction assay, β-gal expression was analyzed by immunofluorescence. For quantification of expression in cell culture, the transduced cells were washed with PBS and permeabilized with 0.2% Triton X-100 for five minutes on ice, followed by blocking with 1% BSA in PBS. […] The degree of β-gal gene expression was determined by counting fluorescent cells in at least ten fields under an inverted microscope (Nikon, Japan). Quantification of the β-gal activity in cell culture was measured as relative light units (RLU) in a luminometer and then normalized to the amount of protein in micrograms, as determined by the Lowry method in a protein assay kit (Bio-Rad Protein Assay®; Hercules, Calif.). […]

[5] = tested on: subcutaneous white fat; experiment: In vivo phage library screening for fat-homing peptides; design: species or system ob/ob mice; settings: mouse
Procedure: In vivo phage-display screening of the CX7C library (C, cysteine; X, any amino acid) (Pasqualini et al., 2000; Arap et al., Nature Med. 8:121-127, 2002) for fat-homing peptides was performed (Pasqualini & Rouslahti 1996, Pasqualini et al., 2000). In each biopanning round, an adult ob/ob mouse was injected intravenously (tail vein) with 10^10 transducing units (TU) of the library. Phage (˜300 TU/g in round 1 increased to ˜10^4 TU/g in round 3) were recovered after 5 min of circulation by grinding subcutaneous white fat with a glass Dounce homogenizer, suspending the homogenate in 4° C. Dulbecco's Modified Eagle's medium (DMEM) containing proteinase inhibitors (DMEM-prin: 1 mM PMSF, 20 μg/ml aprotinin, and 1 μg/ml leupeptin) and washing with DMEM-prin. The lipid phase was discarded during the washes and only the solid-phase cellular material was used. Washed homogenates were incubated with host bacteria (log phase E. coli K91kan; OD600˜2). Bacterial cultures were plated onto Luria-Bertani agar plates containing 40 μg/ml tetracycline and 100 μg/ml kanamycin, incubated overnight at 37° C. and selected clones were bulk-amplified and used to precipitate phage for a subsequent round of biopanning. The sub-library amplified after the third round of panning was enriched for fat-specific binders using a subtraction step. […]

[6] = molecular target: T1, prohibitin (Mus musculus, UniProt P67778); experiment: Adipose receptor identification by binding and immunoprecipitation
T1 construct: from tissue; host or cells: mouse adipose tissue extract
T1 sequence (P67778 2-272): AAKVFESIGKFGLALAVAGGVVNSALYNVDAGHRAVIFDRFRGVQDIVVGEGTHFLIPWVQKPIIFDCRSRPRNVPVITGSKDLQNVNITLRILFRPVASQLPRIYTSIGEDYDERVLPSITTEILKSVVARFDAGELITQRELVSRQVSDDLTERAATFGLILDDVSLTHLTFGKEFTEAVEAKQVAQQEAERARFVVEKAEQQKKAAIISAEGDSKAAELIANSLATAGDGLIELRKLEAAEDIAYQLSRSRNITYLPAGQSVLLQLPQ
Procedure: A band of approximately 35,000 Daltons (35 kDa) was isolated from mouse adipose tissue extract that bound to […] (SEQ ID NO:81) conjugated to (KLAKLAK)2 (SEQ ID NO:1) (not shown). […] The 35 kDa band was analyzed by mass spectrometry, which identified three proteins present in the sample.
The three proteins included predominately a B cell receptor associated protein (prohibitin), apolipoprotein E, and the voltage dependent anion channel (VDAC). Further studies were performed by immunoprecipitation, using either […] (SEQ ID NO:81) or CARAC (SEQ ID NO:71) conjugated to […] (SEQ ID NO:1) and precipitating with commercially available antibodies.

[7] = tested on: white fat vasculature; experiment: Peptide and phage localization in tissues; type: in vivo; settings: intravenous, ob/ob mice
Procedure: as §1

[8] = tested on: white fat vasculature; experiment: Peptide localization in tissues; type: in vivo, C57BL/6 mice
Procedure: as §1

[9] = tested on: KS1767 cells; experiment: Targeted phage vector transduction and peptide inhibition in cell culture; type: cell-based, human; settings: cells pre-incubated with synthetic peptide
Procedure: as §2, §3

[10] = tested on: patient's serum antibodies, anti-GRP78 antibody, anti-CNVSDKSC antibodies; experiment: Cross-inhibition assay; type: binding, human; settings: anti-GRP78 and anti-CNVSDKSC antibodies
Procedure: Microtiter 96-well plates were coated with 10 μg/ml recombinant GRP78 (Stressgen) or GST attached to […] (SEQ ID NO:39) in 100 mM NaHCO3 overnight at 4° C., washed and then blocked with blocking buffer (2% milk, 1% casein, 0.05% Tween-20 in PBS) for 2 hours at 37° C. To determine the inhibitory activities of GRP78 or GST-[…] (SEQ ID NO:39), patient serum (1:50), anti-GRP78 (1:1000), and anti-GST-[…] (1:20) were incubated with GRP78 (50-100 μg) or GST-[…] (SEQ ID NO:39) (100-300 μg). The mixtures were incubated for 1 hour at 37° C. prior to adding to the coated wells. After 1 hour of incubation at room temperature the wells were washed several times with PBST buffer (0.05% Tween-20 in PBS). Secondary antibodies conjugated to horseradish peroxidase were added at 1:5000 dilution, incubated for 30 minutes at room temperature and washed five times with PBST buffer. Finally, the substrate 3,3′,5,5′-Tetramethylbenzidine (TMB; Calbiochem) was added and incubated for 15 minutes at room temperature before stopping the reaction by addition of 0.5M H2SO4. Absorbance at 450 nm was determined in an automated ELISA reader (Bio-Tek).

[11] = tested on: bone marrow metastasis from a prostate cancer; experiment: Immunohistochemical staining inhibition; design: species or system human; settings: GRP78 staining of bone marrow metastasis
Procedure: Paraffin sections (4 μm) were stained with purified biotinylated antibodies and peptide antibodies by immunoperoxidase detection using the Dako antigen retrieval kit and DAB (diaminobenzidine) as a substrate. All of the sections were counter-stained with hematoxylin. Purified IgGs were coupled to biotin and resolved by SDS-PAGE. The biotinylated immunopurified antibodies were used at a dilution of 1:60. Peptide C antibodies and purified pre-immune antibodies were used at 0.01 μg/μl. For the inhibition staining, peptide C antibodies were pre-incubated for 30 minutes at room temperature with the corresponding GST-peptide C (500 μg) prior to staining. For the GRP78 immunostaining, anti-GRP78 antibody (C-20) was used at 1:350 (Santa Cruz Biotechnology, Santa Cruz, Calif.). Peptide antibodies were generated in rabbits and purified using a T-gel immunoglobulin purification kit and protein G column (Pierce).

Compound: CC(C)C[C@@H](NC(=O)[C@@H](CCCCN)NC(=O)CNC(=O)CNC(=O)[C@@H]1CSSC[C@H](N)C(=O)N[C@@H](CCCCN)C(=O)NCC(=O)NCC(=O)N[C@@H](CCCNC(=N)N)C(=O)N[C@@H](C)C(=O)N[C@@H](CCCCN)C(=O)N[C@@H](CC(=O)O)C(=O)N1)C(=O)N[C@H](C)C(=O)N[C@H](CCCCN)C(=O)N[C@H](CC(C)C)C(=O)N[C@H](C)C(=O)N[C@H](CCCCN)C(=O)N[C@H](CCCCN)C(=O)N[C@H](CC(C)C)C(=O)N[C@H](C)C(=O)N[C@H](CCCCN)C(=O)N[C@H](CC(C)C)C(=O)N[C@H](C)C(=O)N[C@H](CCCCN)C(=O)O (H-CKGGRAKDCGG[dK][dL][dA][dK][dL][dA][dK][dK][dL][dA][dK][dL][dA][dK]-OH; disulfide 1-9)
- toxicity [1]: No toxicity
- abnormalities in other organs [2]: No abnormalities in other organs
- mortality [3]: occasionally observed to result in mortality

Compound: CDCRGDCFC (also: cyclized) [RGD-4C]
- inhibition of RGD-4C-β-gal phage transduction [4]: greater than 99%

Compound: CKGGRAKDC
- share of all clones identified in the screen [5]: 4.5%
- receptor identified ([6]; adipose tissue endothelial receptor): prohibitin
- enrichment of prohibitin in precipitated fraction ([6]; compared to the CARAC precipitated fraction): over a ten-fold enrichment

Compound: CKGGRAKDC-FITC: 5-carboxyfluorescein (FITC)-conjugated cyclized CKGGRAKDC (disulfide 1-9 (inferred); also: FITC conjugate, site not given here)
- localization to white fat vasculature [7]: localized to and was internalized by cells of white adipose vasculature
- localization to white fat vasculature ([8]; intravenous, C57BL/6 (leptin +/+) mice): specifically localized to blood vessels of subcutaneous and peritoneal white fat
- co-localization with lectin-rhodamine in control tissue ([8]; pancreatic tissue): No such co-localization was observed

Compound: CTTHWGFTLC (disulfide 1-10 (inferred))
- inhibition of HWGF-β-gal phage transduction [9]: greater than 90%

Compound: GRP78: recombinant 78 kDa glucose regulated protein (Stressgen)
- blocking of antibody binding [10]: capable of blocking binding
- inhibition of immunostaining [11]: staining was inhibited
